Experimental data from US20020051978A1, “Methods and compositions for the identification, assessment, prevention and therapy of human cancers” (priority 2000, published 2002).

Tested on: 60 cancer cell lines (NCI 60 cancer cell line series)
Experiment: NCI-DTP in vitro cancer screen, sulforhodamine B (SRB) growth inhibition, 48 hour exposure
Type: cell-based, human
Description: Cancer Cell Line Preparation. Sixty cancer cell lines were obtained from the National Cancer Institute Developmental Therapeutics Program (NCI-DTP). Procedures for growing cells and testing compounds have been described previously (Scudiero et al., Cancer Res. 1988, 48:4827-4833; Stinson et al., Anticancer Res.; Myers et al., Electrophoresis 1997, 18:647-653). Cells are plated on day 0 at a density individualized for each cell line so that they will generally be sub-confluent at the end of the assay period. On day 1, a compound is added in the format for a duplicate-well, 5-dose, ten-fold interval dose response study.
No-drug, no-cell and no-growth controls are included. On day 3 the cells are processed for staining with sulforhodamine B (SRB), which reflects the amount of cell mass present at the end of a 48 hour exposure to the test agent. From dose response curves based on the SRB data, various parameters can be determined. The one used in the present study is the G15o, defined as the concentration of compound required to inhibit growth of the cell line by 50%. More precisely, the quantity used in the calculation to be described is the potency measure -log{GI50}.
Activity database (A). Table IA, consisting of the growth inhibition (GI5o) values for the 60 cell lines and 24 compounds, was created from the NCI-DTP in vitro cancer screen database. This subset of compounds was selected from the larger 23,000 compound database available from the DTP. The compounds were selected on the basis of their known mechanism of action and chemical structure. The average potency—log{GI50} was extracted from the comma-delimited text files available through the Web at http://www.nci.nih.gov/intra/lmp/jnwbio.htmrl. Subsequently, these log{GI5o} values were inspected manually and classified as indicating either Low, Medium or High sensitivity to each compound.

Carboplatin
classification of cell line as Low(1), Medium(2) or High(3) sensitivity to compound (Breast BT-549 (CL5013)): 2 | classification of cell line as Low(1), Medium(2) or High(3) sensitivity to compound (Breast HS-578T CL5006): 2 | classification of cell line as Low(1), Medium(2) or High(3) sensitivity to compound (Breast MCF7(I) (CL5001)): 2 | classification of cell line as Low(1), Medium(2) or High(3) sensitivity to compound (Breast MCF7/ADRr (CL5002)): 2 | classification of cell line as Low(1), Medium(2) or High(3) sensitivity to compound (Breast MDA-MB-231 CL5005): 1 | classification of cell line as Low(1), Medium(2) or High(3) sensitivity to compound (Breast MDA-MB-435 (CL5011)): 1 | classification of cell line as Low(1), Medium(2) or High(3) sensitivity to compound (Breast MDA-N CL5012): 2 | classification of cell line as Low(1), Medium(2) or High(3) sensitivity to compound (Breast T-47D (CL5014)): 1 | classification of cell line as Low(1), Medium(2) or High(3) sensitivity to compound (CNS SF-268 CL12014): 3 | classification of cell line as Low(1), Medium(2) or High(3) sensitivity to compound (CNS SF-295 CL12015): 3 | classification of cell line as Low(1), Medium(2) or High(3) sensitivity to compound (CNS SF-539 CL12016): 2 | classification of cell line as Low(1), Medium(2) or High(3) sensitivity to compound (CNS SNB-19 (CL12002)): 2 | classification of cell line as Low(1), Medium(2) or High(3) sensitivity to compound (CNS SNB-75(I) CL12005): 2 | classification of cell line as Low(1), Medium(2) or High(3) sensitivity to compound (CNS U251(I) CL12009): 2 | classification of cell line as Low(1), Medium(2) or High(3) sensitivity to compound (Colon COLO-250 CL4010): 1 | classification of cell line as Low(1), Medium(2) or High(3) sensitivity to compound (Colon HCC-2998 (CL4002)): 1 | classification of cell line as Low(1), Medium(2) or High(3) sensitivity to compound (Colon HCT-15 CL4015): 1 | classification of cell line as Low(1), Medium(2) or High(3) sensitivity to compound (Colon HCT-116 (CL4003)): 2 | classification of cell line as Low(1), Medium(2) or High(3) sensitivity to compound (Colon HT29(I) CL4001): 1 | classification of cell line as Low(1), Medium(2) or High(3) sensitivity to compound (Colon KM12 (CL4017)): 1 | classification of cell line as Low(1), Medium(2) or High(3) sensitivity to compound (Colon SW-620 (CL4009)): 2 | classification of cell line as Low(1), Medium(2) or High(3) sensitivity to compound (Leukemia CCRF-CEM(I) (CL7003)): 2 | classification of cell line as Low(1), Medium(2) or High(3) sensitivity to compound (Leukemia HL-60(I) (CL7008)): 3 | classification of cell line as Low(1), Medium(2) or High(3) sensitivity to compound (Leukemia K562(I) CL7005): 2 | classification of cell line as Low(1), Medium(2) or High(3) sensitivity to compound (Leukemia MOLT-4 (CL7006)): 2 | classification of cell line as Low(1), Medium(2) or High(3) sensitivity to compound (Leukemia RPMI-8226(I) (CL7010)): 2 | classification of cell line as Low(1), Medium(2) or High(3) sensitivity to compound (Leukemia SR CL7019): 2 | classification of cell line as Low(1), Medium(2) or High(3) sensitivity to compound (Melanoma LOX IMVI CL10001): 2 | classification of cell line as Low(1), Medium(2) or High(3) sensitivity to compound (Melanoma M14 (CL10014)): 2 | classification of cell line as Low(1), Medium(2) or High(3) sensitivity to compound (Melanoma MALME-3M CL10002): 2 | sensitivity class NSCLC NCI-H23(I) CL1001 (cell line NSCLC NCI-H23(I), CL1001): 3 | sensitivity class NSCLC NCI-H332M CL1017 (cell line NSCLC NCI-H332M, CL1017): 1 | sensitivity class NSCLC NCI-H460 CL1021 (cell line NSCLC NCI-H460, CL1021): 3 | sensitivity class NSCLC NCI-H522 CL1003 (cell line NSCLC NCI-H522, CL1003): 3 | sensitivity class Ovarian IGROV1 CL6010 (cell line Ovarian IGROV1, CL6010): 3 | sensitivity class Ovarian OVCAR-3 CL6001 (cell line Ovarian OVCAR-3, CL6001): 2 | sensitivity class Ovarian OVCAR-4 CL6002 (cell line Ovarian OVCAR-4, CL6002): 2 | sensitivity class Ovarian OVCAR-5 CL6003 (cell line Ovarian OVCAR-5, CL6003): 1 | sensitivity class Ovarian OVCAR-8 CL6005 (cell line Ovarian OVCAR-8, CL6005): 2 | sensitivity class Ovarian SK-OV-3 CL6011 (cell line Ovarian SK-OV-3, CL6011): 2 | sensitivity class Prostate DU-145 CL11003 (cell line Prostate DU-145, CL11003): 2 | sensitivity class Prostate PC-3(I) CL11001 (cell line Prostate PC-3(I), CL11001): 1 | sensitivity class Renal 786-O CL9018 (cell line Renal 786-O, CL9018): 2 | sensitivity class Renal A498 CL9013 (cell line Renal A498, CL9013): 1 | sensitivity class Renal ACHN CL9023 (cell line Renal ACHN, CL9023): 2 | sensitivity class Renal CAKI-1 CL9015 (cell line Renal CAKI-1, CL9015): 2 | sensitivity class Renal RXF-393 CL9016 (cell line Renal RXF-393, CL9016): 2 | sensitivity class Renal SN12C CL9008 (cell line Renal SN12C, CL9008): 2 | sensitivity class Renal TK10 CL9024 (cell line Renal TK10, CL9024): 1 | sensitivity class Renal UO-31 CL9004 (cell line Renal UO-31, CL9004): 2 | 3 # of High (number of the 60 cell lines classified High (3) sensitivity): 8 | 1 # of Low (number of the 60 cell lines classified Low (1) sensitivity): 14 | 2 # of Medium (number of the 60 cell lines classified Medium (2) sensitivity): 38

COc1cccc2c1C(=O)c1c(O)c3c(c(O)c1C2=O)C[C@@](O)(C(=O)CO)C[C@@H]3O[C@H]1C[C@H](N)[C@H](O)[C@H](C)O1 [Adrlamycin]
classification of cell line as Low(1), Medium(2) or High(3) sensitivity to compound (Breast BT-549 (CL5013)): 2 | classification of cell line as Low(1), Medium(2) or High(3) sensitivity to compound (Breast HS-578T CL5006): 2 | classification of cell line as Low(1), Medium(2) or High(3) sensitivity to compound (Breast MCF7(I) (CL5001)): 3 | classification of cell line as Low(1), Medium(2) or High(3) sensitivity to compound (Breast MCF7/ADRr (CL5002)): 1 | classification of cell line as Low(1), Medium(2) or High(3) sensitivity to compound (Breast MDA-MB-231 CL5005): 2 | classification of cell line as Low(1), Medium(2) or High(3) sensitivity to compound (Breast MDA-MB-435 (CL5011)): 2 | classification of cell line as Low(1), Medium(2) or High(3) sensitivity to compound (Breast MDA-N CL5012): 2 | classification of cell line as Low(1), Medium(2) or High(3) sensitivity to compound (Breast T-47D (CL5014)): 2 | classification of cell line as Low(1), Medium(2) or High(3) sensitivity to compound (CNS SF-268 CL12014): 2 | classification of cell line as Low(1), Medium(2) or High(3) sensitivity to compound (CNS SF-295 CL12015): 2
